Assay results taken from patent publication US8415156B2, “Recombinant laminin-521” (Biolamina AB, priority 2010, dated 2013).

Experiments:
Assay type in all cases: cell-based, human
[1] = system: hES cells; experiment: Embryoid body formation; conditions: same three cultures as teratoma test
Description: ES cells from LN-521 coated cell culture dishes were exposed to TrypLE™ Select for one minute at 37° C., 5% CO2, washes two times with a medium, broken into large pieces and cultured in suspension in low adhesion plates. The medium used for this was Knockout DMEM (GIBCO Invitrogen Corporation) supplemented with 2 mM L-glutamine, 20% fetal calf serum (GIBCO Invitrogen Corporation), 0.1 mM β-mercaptoethanol (GIBCO Invitrogen Corporation) and 1% non-essential amino acids (GIBCO Invitrogen Corporation). After 1-2 weeks in suspension, the embryoid bodies were transferred onto gelatin coated tissue cell culture 96-well plates (Sarstedt), cultured for 1-2 weeks, then fixed, stained with antibodies against markers of all three embryonic germ line layers (smooth muscle actin, MAP-2 and α-fetoprotein) and analyzed as described above for immunofluorescence.

[2] = system: Oct4, Nanog, SSEA4; PAX6, SOX17, SOX7; experiment: Expression of pluripotency and differentiation markers (Example 2); conditions: compared with Matrigel passed as small clumps
Description: For immunofluorescence studies, ES cells were cultured and fixed in 8-well slide chambers (BD Biosciences) or 96-well plate wells by 4% paraformaldehyde, permeabilized by 0.1% Triton-X and blocked by 10% bovine fetal serum (GIBCO Invitrogen Corporation) in phosphate-saline buffer (PBS) containing 0.1% Tween-20 (Sigma-Aldrich, St. Louis, www.sigmaaldrich.com) for one hour. Incubation with primary antibody was performed for 1.5 hours at room temperature. Incubation with secondary antibody and 4,6-diamidino-2-phenylindole (DAPI, Molecular Probes) was performed for 40 minutes. Between incubations, the specimens were washed with 0.1% Tween-20 in PBS buffer three to five times. Specimens were preserved in a fluorescence mounting medium (Dako, Glostrup, Denmark, http://www.dako.com), and observed under a fluorescence microscope (Leica, Heerbrugg, Switzerland, http://www.leica.com).
Total RNA was isolated using Absolutely RNA Microprep Kit (Stratagene, La Jolla Calif., www.stratagene.com) according to the manufacturer's instructions. cDNA was synthesized using 0.2 μg of total RNA in 20 μl reaction mixture, containing oligo(dT)12-18 primers and Superscript II reverse transcriptase (GIBCO Invitrogen Corporation), according to the manufacturer's instructions. […] All data was analyzed with 7300 System SDS Software v 1.4. […]

[3] = system: hES cell lines HS181 and H1; experiment: Karyotyping; conditions: HS181 12 passages and H1 10 passages in O3; H1 7 passages in TeSR2
Description: Karyotyping of the cell lines was carried out using standard Q-banding techniques. Samples of cells were treated with colcemid KaryoMAX (0.1 μg/ml; Gibco Invitrogen Corporation) for up to 4 hours, followed by dissociation with Trypsin/EDTA solution (Gibco Invitrogen Corporation). The cells were pelleted via centrifugation and re-suspended in pre-warmed 0.0375 M KCl hypotonic solution and incubated for 10 minutes. Following centrifugation, the cells were resuspended in fixative (3:1 methanol:acetic acid). Metaphase spreads were prepared on glass microscope slides and G-banded by brief exposure to trypsin and stained with 4:1 Gurr's/Leishmann's stain (Sigma-Aldrich Co.). A minimum of 10 metaphase spreads were analyzed and additional 20 were counted.

## LN-521: protein formed by joining α5, β2 and γ1 chains together; human recombinant, produced in HEK293 cells
[1]
  differentiation in vitro: embryoid bodies expressing markers of mesoderm, ectoderm and endoderm: retained the competence to form embryoid bodies
[2]
  expression levels of pluripotency markers Oct4, Nanog, and SSEA4: stable expression levels
[3]
  karyotype: normal
